Laboratory results published in ChEMBL document CHEMBL4354827, “Discovery of Novel, Potent, Brain-Permeable, and Orally Efficacious Positive Allosteric Modulator of α7 Nicotinic Acetylcholine Receptor [4-(5-(4-Chlorophenyl)-4-methyl-2-propionylthiophen-3-yl)benzenesulfonamide]: Structure-Activity Relationship and Preclinical Characterization” (J Med Chem, 2020).

Test: Oral bioavailability in Beagle dog at 10 mg/kg after 0.25 to 144 hrs by LC-MS/MS analysis
Assay type: ADME, organism-based, Canis lupus familiaris
Conditions: in vivo

## CCC(=O)c1sc(-c2ccc(Cl)cc2)c(C)c1-c1ccc(S(N)(=O)=O)cc1
  bioavailability: 60%
